How the values were obtained:
MSTO-211H xenograft = assay: Mouse xenograft MSTO-211H tumors, study part 2; assay type: in vivo, BALB/c nude mice; settings: PO
Source text: This study evaluated the in vivo anti-tumor efficacy of test compounds in BALB/c nude mice for treatment of MSTO-211H xenograft of lung cancer.
• Species: Mus Musculus • Strain: BALB/c nude • Age: 6-8 weeks • Sex: female • Body weight: 18-22 g • Number of animals inoculated with tumor: 80 mice • Number of animals enrolled in the treatment: 36 mice • Number of unenrolled animals: 44 mice • Animal supplier: Beijing Vital River Biotechnology Experimental Animal Co. Ltd Certification number: 20170011010591
The MSTO-211H tumor cells were maintained in RPMI 1640 medium supplemented with 10% Fetal bovine serum and 1% Antibiotic-Antimycotic at 37° C. in an atmosphere of 5% CO2 in air. The tumor cells were routinely subcultured twice weekly by trypsin-EDTA. The cells growing in an exponential growth phase with 95% cell survival or above were harvested, and counted for tumor inoculation.
Each mouse was inoculated subcutaneously at the right flank with MSTO-211H tumor cells (5×10^6+50% matrigel/0.2 mL) for tumor development. Animals were marked with earrings with unique 6 significant figure number for identification. The treatments of part 1 were started on day 5 after cell inoculation when the average tumor volume reached 181 mm^3. The treatments of part 2 were started on day 16 after cell inoculation when the average tumor volume reached 254 mm^3. The treatments of part 3 were started on day 33 after cell inoculation when the average tumor volume reached 969 mm^3.
The major endpoint was to determine if the tumor growth could be delayed. Tumor volume was measured twice a week in two dimensions using a caliper, and the volume was expressed in mm^3 using the formula: V=0.5 a×b^2 where a and b are the long and short diameters of the tumor, respectively. The tumor size was then used for calculations of T/C value. The TGI value (in percent) or the T/C value (in percent) is an indication of antitumor effectiveness; T and C are the mean tumor volumes or tumor weights of the treated and control groups, respectively, on a given day.
TGI was calculated for each group using the formula: TGI (%)=[1−(Ti−T0)/(Vi−V0)]×100; Ti is the average tumor volume of a treatment group on a given day, T0 is the average tumor volume of the treatment group on the day of treatment start, Vi is the average tumor volume of the vehicle control group on the same day with Ti, and V0 is the average tumor volume of the vehicle group on the day of treatment start.
Relative T/C (%)=TRTV/CRTV×100 (RTV (%)=Vt/V0×100, Vt is the average tumor volume on a given day, V0 is the average tumor volume on the first day of treatment. TRTV is the RTV of a treatment group, and the CRTV is the RTV of the vehicle control group.)
The antitumor effectiveness of part 2 study was analyzed on PG-D30 when vehicle group reached 738 mm^3.
Summary statistics, including mean and the standard error of the mean (SEM), were provided for the tumor volume of each group at each time point.
Statistical analysis of difference in tumor volume among the groups was conducted on the data obtained at the end of the study.
One-tailed T test was performed to compare tumor volumes between two groups. All data are analyzed using GraphPad Prism 6.0. p<0.05 is considered to be statistically significant.

NCI-H28 cells = assay: Proliferation and cell viability assay, Cell Titer One; assay type: cell-based; settings: Homo sapiens, NCI-H28, 144 h; Cell Titer One assay, non-responder, 6 days
Procedure: Cell proliferation of a TEAD dependent NF2-null mesothelioma cell line, NCI-H226 was assayed using two different protocols. Results were confirmed in two different TEAD-non-dependent lung cancer cell lines, H23 and H28, were used as non-responsive controls, as indicated:
b) Cell Titer One (Promega, #G3582). The effect of the TEAD inhibitors disclosed herein on cell proliferation was also determined using the Promega Substrate Cell Titer Aqueous One Solution Reagent. The TEAD inhibitors were evaluated for the effects on cell proliferation responder (H226) and non-responder negative control cancer cell lines (CAMA1, H28), as well as non-transformed normal human cells (HUVEC, NHDF). Dissociated cells were resuspend in media (depending on cell line, either in DMEM, RPMI, or EMEM all with 10% FBS, with gentamicin as an antibiotic). Cells were seeded at 100 μL/well at 750 cells per well in 96-well plates and allowed to settle and attach. After an incubation of 24 hrs (37° C., 5% CO2, humidified incubator), 100 μL of test compound-containing media was added. A dilution series of 2000× concentrated stock of test compounds was prepared in DMSO, for final concentrations from 0.1 to 10,000 nM. After addition of test compound-containing media, cells were incubated for 6 days at 37° C., 5% CO2, humidified incubators). […] The OD was measured using Vmax [Molecular Devices] spectrophotometer plate reader. […]

[1] = part 2, day 30, 12.5 mg/kg, BID

| IC50 (NCI-H28 cells) [nM] | SMILES | Tumor size (MSTO-211H xenograft; part 2, day 0, 12.5 mg/kg, BID) [mm^3] | Tumor size (MSTO-211H xenograft; part 2, day 2, 12.5 mg/kg, BID) [mm^3] | Tumor size (MSTO-211H xenograft; part 2, day 6, 12.5 mg/kg, BID) [mm^3] | Tumor size (MSTO-211H xenograft; part 2, day 9, 12.5 mg/kg, BID) [mm^3] | Tumor size (MSTO-211H xenograft; part 2, day 12, 12.5 mg/kg, BID) [mm^3] | Tumor size (MSTO-211H xenograft; part 2, day 16, 12.5 mg/kg, BID) [mm^3] | Tumor size (MSTO-211H xenograft; part 2, day 20, 12.5 mg/kg, BID) [mm^3] | Tumor size (MSTO-211H xenograft; part 2, day 23, 12.5 mg/kg, BID) [mm^3] | Tumor size (MSTO-211H xenograft; part 2, day 27, 12.5 mg/kg, BID) [mm^3] | T/C (MSTO-211H xenograft; [1]) [%] | TGI (MSTO-211H xenograft; [1]) [%] | Tumor size (MSTO-211H xenograft; [1]) [mm^3] | Tumor Volume (MSTO-211H xenograft; part 2, day 30, 12.5 mg/kg, BID (Table 17)) [mm^3] |
| --- | --- | --- | --- | --- | --- | --- | --- | --- | --- | --- | --- | --- | --- | --- |
|  | Cn1nnc(-c2cc([C@]3(C)CCNC3=O)ccc2Nc2ccc(C(F)(F)F)cc2)n1 (stereo in doubt) [Compound 20, 3-methyl-3-(3-(2-methyl-2H-tetrazol-5-yl)-4-((4-(trifluoromethyl)phenyl)amino)phenyl) pyrrolidin-2-one] | 254 ± 30 | 249 ± 37 | 160 ± 39 | 116 ± 36 | 80 ± 13 | 75 ± 10 | 78 ± 14 | 91 ± 10 | 96 ± 6 | 22.24 | 118.44 | 164 ± 15 | 164 ± 15 |
| > 1000 | Cn1cnc(-c2cc([C@@]3(C)CCNC3=O)ccc2Nc2ccc(C(F)(F)F)cc2)c1 (single isomer, unassigned) [Compound 5, 3-methyl-3-(3-(1-methyl-1H-imidazol-4-yl)-4-((4-(trifluoromethyl)phenyl)amino)phenyl)pyrrolidin-2-one] |  |  |  |  |  |  |  |  |  |  |  |  |  |
